In assay [1] the target is PHD2_181-402 (Homo sapiens, UniProt Q9GZT9). Briefly: WaterLOGSY 1D NMR binding. The note with it: for binding to PHD2_181-402 (WaterLOGSY signal): 10 mM ligand, 25 μM PHD2_181-402. The source says: Next, we established whether butyrate binds directly to PHD2_181-402 using 1D WaterLOGSY NMR.[28] This method enables sensitive and robust detection of binding (dissociation constants as weak as μM to low mM) based on the magnetization transfer between water molecules, proteins, and ligands of interest in close proximity via dipolar proton–proton cross-relaxation (nuclear Overhauser effect, NOE). […] Binding and non-binding ligands can be distinguished in a WaterLOGSY spectrum via their opposite signs in relation to water for their corresponding peaks.
Following an established protocol, all NMR analyses were performed using PHD2_181-402 and the diamagnetic element (Zn^2+) rather than a paramagnetic element such as Fe^2+ that would result in inhibitive signal reduction or loss due to fast relaxation induced by the unpaired electron.[63]
Water-Ligand Observed via Gradient SpectroscopY (WaterLOGSY): Measurements were carried out on a 600 MHz triple-resonance Bruker cryoprobe spectrometer.[28] Selective water inversion was achieved using an iBURP shaped pulse with 15 ms length and an inversion bandwidth of 0.4 ppm. The mixing time was set to 1 s, and the water was suppressed using double Watergate. 1024 scans were acquired with an interscan delay of 2 s. The sample concentration was 25 µM of PHD2_181-402 mixed with 10 mM of the different ligands in NMR buffer (Tris 50 mM, NaCl 20 mM, ZnCl2 100 μM) at pH 6.5.

The subject of assay [2] is T84 cells. In words: 2-OG levels in T84 cells. The assay is classed as cell-based. To be noted: 3 h. As for the experimental part: T84 cells were cultured in 95% air with 5% CO2 at 37°C in standard media made of DMEM:F-12 supplemented with 10% calf serum, 1% penicillin/streptomycin, and 1% GlutaMAX™ (ThermoFisher Scientific) on 9.6 cm^2 6-well plates (ThermoFisher Scientific). Real-time oxygen sensing was done using the SensorDish Reader from Applikon Biotechnology as described previously with T84 cells plated on 0.33 cm^2 transwell inserts (Corning, 0.4 μm).[12] All MCPA treatments included a 2 h pretreatment with MCPA before treatment with butyrate.
Metabolites Extractions and HPLC-DAD: Cell and colon tissue metabolites were extracted and analyzed as previously described with minor variations.[61],[62] The metabolites were detected by absorption at wavelengths of 210, 254, and 280 nm, with their absorbance spectra and retention times verified by co-injection with authentic standards. Metabolites for HPLC-ESI MS analyses were resuspended in deionized water (pH 7.2).
HPLC-ESI MS: Analyses were performed on an Agilent Technologies 1260 Infinity II LC/MSD iQ with electrospray ionization (ESI) mass detection. Negative ion mass-to-charge ratios (m/z) were scanned from 50 to 500. The metabolite extracts were chromatographed using a Sepax Carbomix column (Pb-Np5:8%, 5 μm, non-porous, 4.6 × 300 mm) (mobile phase A: water; mobile phase B: acetonitrile; column temperature, 75°C). Chromatographic separation was performed using a combination of isocratic and gradient methods, including column washing and equilibration periods at the end (0 min: 100% A, 0.12 mL/min; 60 min: 100% A, 0.12 mL/min; 70 min: 70% A, 0.5 mL/min; 145 min: 70% A, 0.5 mL/min; 150 min: 100% A, 0.5 mL/min; 164 min, 100% A, 0.5 mL/min; 165 min, 100% A, 0.12 mL/min; 170 min, 100% A, 0.12 mL/min).

Assay [3] concerns murine enteroids. Briefly: HIF stabilization in differentiated murine enteroids. The assay is classed as cell-based, mice. The note with it: butyrate with or without 1 mM MCPA, 4 h. As for the experimental part: Murine intestinal organoids/enteroids were isolated from wild-type C57BL/6 mice and cultured as previously described.[60] Briefly, colonic tissues were minced and then enzymatically digested and dissociated in GentleMACS tubes (Milteny Biotec). The homogenized tissues were then filtered through a 70 µm cell strainer and resuspended in Matrigel (Corning). Cells were cultured in L-WRN conditioned media until ready for differentiation into an epithelial lineage, in which the cells were incubated for 2 d in L-WRN media diluted 5-fold with DMEM:F-12 supplemented with 10% calf serum, 1% penicillin/streptomycin, and 1% GlutaMAX™. […] MCPA treatment also includes a 2 h pretreatment with MCPA before butyrate was added.
TRIzol® reagent (ThermoFisher Scientific) was used to isolate total RNA from T84 cells. […] Quantitative PCR analysis was performed using the Power SYBR™ Green master mix (Applied Biosystems) in a thermocycler. Fold change in expression of target mRNA relative to β-actin (ACTB) mRNA was calculated using the delta-delta Ct method. […]
T84 cells were rinsed with PBS and collected and lysed in 200 µL of radioimmunoprecipitation assay (RIPA, 50 mM Tris-HCl pH 8.0, 1 mM EDTA, 1% Triton X-100, […], 0.5% sodium deoxycholate, 150 mM NaCl) buffer with protease inhibitors on ice. […] Protein quantity of the supernatant was determined using the Bradford reagent. […]

The values that follow come from PMC8253137, “Microbiota-derived butyrate is an endogenous HIF prolyl hydroxylase inhibitor” (Gut Microbes, 2021).

Entries after “also recorded” stand apart in the source; their conditions may differ.

PHD2_181-402, sequence (Q9GZT9 181-402): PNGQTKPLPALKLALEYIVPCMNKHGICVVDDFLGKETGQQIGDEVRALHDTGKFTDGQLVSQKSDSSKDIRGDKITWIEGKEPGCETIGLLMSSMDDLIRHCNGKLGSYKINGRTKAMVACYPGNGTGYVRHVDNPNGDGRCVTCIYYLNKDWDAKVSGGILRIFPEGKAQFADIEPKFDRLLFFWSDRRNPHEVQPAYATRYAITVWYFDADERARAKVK

As for `CCCC(=O)O` [Butyrate], the “binding to the 2-OG and PHD2_181-402 complex (WaterLOGSY)” value in assay [1] (10 mM butyrate, 25 μM PHD2_181-402, with 150 μM 2-OG) is on record as “could not bind; also recorded: absence of binding”. Moreover, the “binding to PHD2_181-402 (WaterLOGSY signal)” value in assay [1] was “clear positive signal, indicative of binding”; in assay [1] (listed as Butyric acid), “indicating binding”. In addition, the “2-OG levels compared to control” value in assay [2] (10 mM butyrate or 30 μM IOX2) is “significantly increased”. Also, the “2-OG levels in the presence of MCPA” value in assay [2] (10 mM butyrate with 1 mM MCPA) is reported as “significantly increased”. For the same compound, the HIF-1α protein expression result in assay [3] is reported as “increased HIF-1α protein expression”. Also, in assay [3], the “HIF-1α target gene expression” value is given as “induced expression of HIF-1α target genes”.
